Assays:
Type in all cases: ADME, organism-based
[1] = Volume of distribution at steady state in rat at 1 mg/kg, iv and 2 mg/kg, po; conditions: in vivo, read-out: Vdss
[2] = Cmax in rat at 2 mg/kg, po; design: dose 2 mg/kg, route oral; conditions: in vivo
[3] = Oral bioavailability in rat at 2 mg/kg; conditions: in vivo

Vd [1] [L/kg]	Cmax [2] [nM]	bioavailability [3] [%]	Structure (SMILES)
5.9	100	27	CN(C)CCOc1cc(-c2cn[nH]c2)ccc1NC(=O)C1COc2ccc(F)cc2C1 (centres undefined)
1.7	320	35	COc1ccc2c(c1)CC(C(=O)Nc1ccc(-c3cn[nH]c3)cc1OCCN(C)C)CO2 (centres undefined)
4.6	170	33	CN(C)CCOc1cc(-c2cn[nH]c2)ccc1NC(=O)C1COc2ccccc2C1 (centres undefined)

From ChEMBL document CHEMBL1141010, “Chroman-3-amides as potent Rho kinase inhibitors” (Bioorg Med Chem Lett, 2008)
